Laboratory results: patent publication EP4273147A1, “SUBSTITUTED SPIROLACTAMS, SALTS THEREOF AND THEIR USE AS HERBICIDALLY ACTIVE SUBSTANCES” (Bayer Aktiengesellschaft, priority 2022, dated 2023)

Experiments:
POAAN [1] = assay: Herbicidal post-emergence action (Table B7); type: in vivo, Poa annua; details: application rate 1280 g/ha
Outline: (§1)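 Percent herbicidal activity scored visually versus untreated controls, with 100% meaning dead plants. Scoring took place ~3 weeks after post-emergence treatment of one-leaf-stage weeds grown in sandy loam pots in a greenhouse.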

ECHCG [2] = assay: Herbicidal post-emergence action (Table B3); type: in vivo, Echinochloa crus-galli; details: application rate 1280 g/ha; rated visually after about 3 weeks
Outline: as §1

VIOTR [3] = assay: Herbicidal post-emergence action, section E (Table E10); type: in vivo, Viola tricolor; details: application rate 320 g/ha; assessed visually after ca. 3 weeks
Excerpt: (§2) 2 to 3 weeks after sowing, the test plants were sprayed in the single-leaf stage.

SETVI [4] = assay: Herbicidal pre-emergence action (Table A5); type: in vivo, Setaria viridis; details: visual grading after ca. 3 weeks
Outline: (§3)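 Sown in sandy loam in pots and covered with soil: weed seeds, two species per pot, one of each plant class (mono- and dicotyledonous).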

DIGSA [5] = assay: Herbicidal pre-emergence action (Table A12); type: in vivo, Digitaria sanguinalis; details: application rate 320 g/ha; visual grading after ca. 3 weeks
Outline: as §3

ZEAMX [6] = assay: Post-emergence effects on crop plants (Table F1); type: in vivo, Zea mays; details: application rate 320 g/ha, crop plant ZEAMX
Excerpt: as §2

ALOMY [7] = assay: Herbicidal pre-emergence action (Table A9); type: in vivo, Alopecurus myosuroides; details: application rate 1280 g/ha; visual grading after ca. 3 weeks
Outline: as §3

STEME = assay: Herbicidal pre-emergence action (Table A6); type: in vivo, Stellaria media; details: application rate 320 g/ha; visual grading after ca. 3 weeks
Outline: as §3

LOLRI [8] = assay: Herbicidal post-emergence action (Table B5); type: in vivo, Lolium rigidum; details: application rate 1280 g/ha; rated visually after about 3 weeks
Method: (§4) Seeds of mono- and dicotyledonous weed plants were placed in plastic pots in sandy loam soil (doubly sown with in each case one species of mono- or dicotyledonous weed plants per pot), covered with soil and cultivated in a greenhouse under controlled growth conditions. 2 to 3 weeks after sowing, the test plants were treated at the one-leaf stage. […] After the test plants had been kept in the greenhouse under optimum growth conditions for about 3 weeks, the activity of the preparations was rated visually in comparison to untreated controls. For example, 100% activity = the plants have died, 0% activity = like control plants.

LOLRI [9] = assay: Herbicidal pre-emergence action, section C (Table C7); type: in vivo, Lolium rigidum; details: application rate 320 g/ha; visual grading after ca. 3 weeks
VERPE [10] = assay: Herbicidal pre-emergence action, section C (Table C11); type: in vivo, Veronica persica; details: application rate 320 g/ha; visual grading after ca. 3 weeks
VIOTR [11] = assay: Herbicidal pre-emergence action, section C (Table C12); type: in vivo, Viola tricolor; details: application rate 80 g/ha; visual grading after ca. 3 weeks
MATIN [12] = assay: Herbicidal post-emergence action (Table B6); type: in vivo, Matricaria inodora; details: application rate 1280 g/ha; rated visually after about 3 weeks
Outline: as §1

LOLRI [13] = assay: Herbicidal pre-emergence action (Table A3); type: in vivo, Lolium rigidum; details: visual grading after ca. 3 weeks
Outline: as §3

BRSNW [14] = assay: Pre-emergence effects on crop plants (Table D5); type: in vivo, Brassica napus; details: crop plant, visual grading after ca. 3 weeks
ECHCG [15] = assay: Herbicidal pre-emergence action, section C (Table C6); type: in vivo, Echinochloa crus-galli; details: visual grading after ca. 3 weeks
POAAN [16] = assay: Herbicidal pre-emergence action (Table A7); type: in vivo, Poa annua; details: visual grading after ca. 3 weeks
Outline: as §3

ALOMY [17] = assay: Herbicidal pre-emergence action, section C (Table C2); type: in vivo, Alopecurus myosuroides; details: application rate 320 g/ha; visual grading after ca. 3 weeks
Excerpt: Seeds of mono- and dicotyledonous weed plants and crop plants were sown, in plastic or organic planting pots, in sandy loam and covered with soil. The compounds according to the invention, formulated in the form of wettable powders (WP) or as emulsifiable concentrates (EC), were applied to the surface of the covering soil as aqueous suspension or emulsion, with the addition of 0.5% of an additive, at an application rate of 600 1 of water/ha (converted). Following treatment, the pots were placed in a greenhouse and kept under optimum growth conditions for the test plants.

TRZAS [18] = assay: Post-emergence effects on crop plants (Table F2); type: in vivo, Triticum aestivum; details: application rate 320 g/ha, crop plant TRZAS
Excerpt: as §2

ORYZA [19] = assay: Post-emergence effects on crop plants (Table F3); type: in vivo, Oryza sativa; details: application rate 320 g/ha, crop plant ORYZA
Excerpt: as §2

GLXMA [20] = assay: Pre-emergence effects on crop plants (Table D4); type: in vivo, Glycine max; details: crop plant, visual grading after ca. 3 weeks
ORYZA [21] = assay: Pre-emergence effects on crop plants (Table D3); details: crop plant, visual grading after ca. 3 weeks
MATIN [22] = assay: Herbicidal pre-emergence action (Table A4); type: in vivo, Matricaria inodora; details: application rate 1280 g/ha; visual grading after ca. 3 weeks
Outline: as §3

DIGSA [23] = assay: Herbicidal pre-emergence action, section C (Table C5); type: in vivo, Digitaria sanguinalis; details: visual grading after ca. 3 weeks
VERPE [24] = assay: Herbicidal post-emergence action, section E (Table E9); type: in vivo, Veronica persica; details: application rate 320 g/ha; assessed visually after ca. 3 weeks
Excerpt: as §2

ZEAMX [25] = assay: Pre-emergence effects on crop plants (Table D1); type: in vivo, Zea mays; details: crop plant; application rate 320 g/ha; visual grading after ca. 3 weeks
GLXMA [26] = assay: Post-emergence effects on crop plants (Table F4); type: in vivo, Glycine max; details: application rate 320 g/ha, crop plant GLXMA
Excerpt: as §2

SETVI [27] = assay: Herbicidal pre-emergence action, section C (Table C10); type: in vivo, Setaria viridis; details: visual grading after ca. 3 weeks
VERPE [28] = assay: Herbicidal pre-emergence action (Table A11); type: in vivo, Veronica persica; details: application rate 1280 g/ha; visual grading after ca. 3 weeks
Outline: as §3

ECHCG [29] = assay: Herbicidal post-emergence action, section E (Table E5); type: in vivo, Echinochloa crus-galli; details: application rate 320 g/ha; assessed visually after ca. 3 weeks
Excerpt: as §2

VERPE [30] = assay: Herbicidal post-emergence action (Table B10); type: in vivo, Veronica persica
Outline: as §1

ECHCG [31] = assay: Herbicidal pre-emergence action (Table A2); type: in vivo, Echinochloa crus-galli; details: visual grading after ca. 3 weeks
Outline: as §3

TRZAS [32] = assay: Pre-emergence effects on crop plants (Table D2); type: in vivo, Triticum aestivum; details: crop plant; application rate 320 g/ha; visual grading after ca. 3 weeks
SETVI [33] = assay: Herbicidal post-emergence action, section E (Table E8); type: in vivo, Setaria viridis; details: application rate 80 g/ha; assessed visually after ca. 3 weeks
Excerpt: as §2

BRSNW [34] = assay: Post-emergence effects on crop plants (Table F5); type: in vivo, Brassica napus; details: application rate 80 g/ha, crop plant BRSNW
Excerpt: as §2

ALOMY [35] = assay: Herbicidal post-emergence action (Table B2); type: in vivo, Alopecurus myosuroides; details: application rate 1280 g/ha; rated visually after about 3 weeks
Method: as §4

POLCO = assay: Herbicidal pre-emergence action, section C (Table C9); type: in vivo, Polygonum convolvulus; details: application rate 320 g/ha; visual grading after ca. 3 weeks

Row | pre-emergence activity against ZEAMX (ZEAMX [25]) | pre-emergence activity against BRSNW (BRSNW [14]; application rate 320 g/ha) | pre-emergence activity against TRZAS (TRZAS [32]) | pre-emergence activity against ORYZA (ORYZA [21]; application rate 320 g/ha) | SMILES | post-emergence activity against ECHCG (ECHCG [2]) | post-emergence activity against VIOTR (VIOTR [3]) | pre-emergence activity against SETVI (SETVI [4]; application rate 1280 g/ha) | pre-emergence activity against DIGSA (DIGSA [5]) | post-emergence activity against ZEAMX (ZEAMX [6]) | pre-emergence activity against ALOMY (ALOMY [7]) | pre-emergence activity against STEME (STEME) | pre-emergence activity against LOLRI (LOLRI [13]; application rate 1280 g/ha) | pre-emergence activity against POAAN (POAAN [16]; application rate 320 g/ha) | post-emergence activity against TRZAS (TRZAS [18]) | post-emergence activity against ORYZA (ORYZA [19]) | post-emergence activity against GLXMA (GLXMA [26]) | pre-emergence activity against SETVI (SETVI [27]; application rate 320 g/ha) | pre-emergence activity against VERPE (VERPE [28]) | pre-emergence activity against ECHCG (ECHCG [15]; application rate 320 g/ha) | pre-emergence activity against ECHCG (ECHCG [31]; application rate 320 g/ha) | other results
1 | 0% | – | – | – | O=C1N(Cc2ccccc2Cl)CCC12CCCN(Cc1c(F)cccc1F)C2=O (racemic) [I-045] | 90% | 80% | 100% | 90% | 0% | 90% | 90% | 100% | 100% | 0% | 0% | 0% | 100% | – | – | – | post-emergence activity against POAAN (POAAN [1]): 90%; post-emergence activity against LOLRI (LOLRI [8]): 90%; pre-emergence activity against LOLRI (LOLRI [9]): 90%; pre-emergence activity against VERPE (VERPE [10]): 80%; pre-emergence activity against VIOTR (VIOTR [11]): 90%; post-emergence activity against MATIN (MATIN [12]): 90%; pre-emergence activity against BRSNW (BRSNW [14]; application rate 80 g/ha): 0%; pre-emergence activity against ECHCG (ECHCG [15]; application rate 80 g/ha): 90%; pre-emergence activity against ALOMY (ALOMY [17]): 100%; pre-emergence activity against GLXMA (GLXMA [20]; application rate 320 g/ha): 0%; pre-emergence activity against ORYZA (ORYZA [21]; application rate 80 g/ha): 0%; pre-emergence activity against MATIN (MATIN [22]): 90%; pre-emergence activity against DIGSA (DIGSA [23]; application rate 80 g/ha): 80%; post-emergence activity against VERPE (VERPE [24]): 80%
2 | 20% | 20% | 20% | 0% | O=C1N(Cc2cccc(F)c2Cl)CCCC12CCCN(Cc1cccc(F)c1Cl)C2=O (racemic) [I-047] | – | 80% | 100% | – | 10% | 100% | – | 90% | – | 20% | 0% | 20% | – | 90% | 80% | 90% | post-emergence activity against ECHCG (ECHCG [29]): 80%; post-emergence activity against VERPE (VERPE [30]; application rate 1280 g/ha): 90%; pre-emergence activity against POAAN (POAAN [16]; application rate 1280 g/ha): 100%; post-emergence activity against SETVI (SETVI [33]): 80%; post-emergence activity against BRSNW (BRSNW [34]): 20%; pre-emergence activity against SETVI (SETVI [27]; application rate 80 g/ha): 80%
3 | – | – | – | – | O=C1N(Cc2ccccc2Br)CCCC12CCCN(Cc1cccc(F)c1F)C2=O (racemic) [I-055] | 90% | – | – | – | – | – | – | – | – | – | – | – | – | – | – | 100% | post-emergence activity against VERPE (VERPE [30]; application rate 320 g/ha): 90%; pre-emergence activity against SETVI (SETVI [4]; application rate 320 g/ha): 90%; pre-emergence activity against LOLRI (LOLRI [13]; application rate 320 g/ha): 100%; post-emergence activity against ALOMY (ALOMY [35]): 90%
4 | – | 0% | 0% | 20% | O=C1N(Cc2cc(F)ccc2Cl)CCCC12CCCN(Cc1cc(F)ccc1Cl)C2=O (racemic) [I-069] | – | 90% | – | 100% | 20% | – | 90% | – | 100% | 0% | 0% | 20% | 100% | 90% | 80% | – | pre-emergence activity against SETVI (SETVI [4]; application rate 320 g/ha): 100%; pre-emergence activity against POLCO (POLCO): 80%; pre-emergence activity against ECHCG (ECHCG [31]; application rate 1280 g/ha): 90%; pre-emergence activity against GLXMA (GLXMA [20]; application rate 80 g/ha): 0%; pre-emergence activity against DIGSA (DIGSA [23]; application rate 320 g/ha): 100%; post-emergence activity against BRSNW (BRSNW [34]): 0%; post-emergence activity against ALOMY (ALOMY [35]): 100%
